These are literature values, as cited in patent US20240065977A1, “MYDRIATIC AND ANTI-MUSCARINIC AGENT COMPOSITION FOR OPHTHALMIC USE” (SENTISS PHARMA PRIVATE LIMITED, priority 2020, published 2024).

This data set deals with pupil.

Where two headings read alike, the source gives them in different places.

For `CN1[C@@H]2CC[C@H]1C[C@@H](OC(=O)C(CO)c1ccccc1)C2` (stereo partly drawn) [Atropine], under “Concentration 0.5%-3%”, the “Mydriasis Peak” value was 30 to 40 min and the “Mydriasis Recovery” value was 7 to 12 days. Moreover, under “pupillary dilatation”, the duration of action was at least 7 days and the onset of action is recorded as 40 min.

With `CN1[C@@H]2CC[C@H]1C[C@@H](OC(=O)C(O)c1ccccc1)C2` (stereo partly drawn) [Homatropine], where the note is “Concentration 2%-5%”, the “Mydriasis Peak” value is 40 to 60 min and the “Mydriasis Recovery” value was 1 to 3 days.
